For series [1] the following is noted: single substitution of Ile for Glu at position 4, versus unmodified subtilin; cited from earlier work.
For a further series, the system named is Bacillus subtilis 1687. Put plainly: Deferred antagonism assay on trypticase soy-yeast agar plates. It is filed as cell-based. Particulars: zone of inhibition.
In a further series the test system is Streptococcus mutans 159. The description is as above. Type of series: cell-based. Particulars: zone of inhibition.
The subject of a further series is Streptococcus pneumoniae. Described as above. It is filed as cell-based. Further details: key: S, sensitive (zone radius >2 mm); SS, zone radius >S. Particulars: zone of inhibition.
For series [2], the system named is Streptococcus faecalis 78.4. The series is described as above. It is filed as cell-based. Particulars: zone of inhibition.
In the next series the test system is Streptococcus mutans 130. Described as above. Type of series: cell-based. The following applies: zone of inhibition.
The format of series [3] is physicochemical. The source says:
(§1) The mutacins of the present invention have an apparent Mr of about 2,500 Da as determined by high performance liquid chromatography using a size-exclusion column. This is a useful defining parameter which may be determined using the routinely employed technique of column chromatography. However, the highly purified mutacins may be found to have a slightly different exact molecular weights, depending on the technique used, such as the molecular weight of 3,244.64±1.15 Da determined by ion spray mass spectroscopy for the T8-derived mutacin as determined from the m/z values, wherein z is equal to 2, 3, or 4 for m / z values 1623, 1083 and 812, respectively (see FIG. 4). Furthermore, the mutacin is thermostable, as measured by, e.g., incubating an agar plug at 100° C. for 30 minutes and quantitating bacteriocidal activity. The mutacin is stable over a pH range of 4-10, as measured by incubating the purified mutacin for 24 hours in appropriate 0.1 M buffers, e.g., such as acetate, phosphate or glycine buffers, at room temperature, and tested for bacteriocidal activity.
(§2) Mutacin was sensitive to trypsin. After 10 min incubation with the protease, no activity in sample was detected. Control samples without trypsin retained their full activity under identical conditions. Mutacin was thermostable as analyzed by residual activity after incubation at 80° C. for 30 min, and by incubating at 100° C. in loading buffer.

Another series relates to Streptococcus salivarius. The experiment in a line: Deferred antagonism assay on trypticase soy-yeast agar plates. Type of series: cell-based. The following applies: zone of inhibition.
The test system of the next series is Streptococcus lactis. The series is described as above. The following applies: zone of inhibition. Type of series: cell-based.
In another series the test system is Actinomyces viscosus. Described as above. Particulars: zone of inhibition. Type of series: cell-based.
Another series concerns trypsin. Put plainly: Sensitivity to trypsin (residual mutacin activity). Type of series: physicochemical. How it is done:
Sensitivity to trypsin (Sigma Chemical Co., St. Louis, Mo.) was determined according to the manufacturer's recommendation by incubating purified mutacin (4096 BU) in 50 ml of 50 mM sodium phosphate buffer pH 7.5 with trypsin (2 mg) at room temperature. Samples were analyzed for residual mutacin activity at various time intervals.
as §2

In the next series the test system is Clostridium sporogenes. The experiment in a line: Deferred antagonism assay on trypticase soy-yeast agar plates. It is filed as cell-based. The following applies: Clostridium sporogenes (ATCC 19606); zone of inhibition.
In another series the test system is Streptococcus rattus. Described as above. It is filed as cell-based. Particulars: zone of inhibition.
The subject of another series is Streptococcus faecium. The series is described as above. The following applies: zone of inhibition. Type of series: cell-based.
The next series relates to Mycobacterium phlei. The series is described as above. It is filed as cell-based. Particulars: zone of inhibition.
Series [4] relates to Streptococcus mutans GS-5. The series is described as above. The following applies: zone of inhibition. Type of series: cell-based.
A short description of series [5]: Isoelectric point (electrophoretic mobility / isoelectric focusing). Type of series: physicochemical. The following applies: based on electrophoretic mobility.
The subject of a further series is Streptococcus mitis. Put plainly: Deferred antagonism assay on trypticase soy-yeast agar plates. Type of series: cell-based. Particulars: zone of inhibition.
Another series concerns Staphylococcus aureus. The series is described as above. Particulars: zone of inhibition. Type of series: cell-based. Also on record: key: S, sensitive (zone radius >2 mm); SS, zone radius >S.
In a further series the test system is Streptococcus pyogenes. Described as above. It is filed as cell-based. Also on record: key: S, sensitive (zone radius >2 mm); SS, zone radius >S. Particulars: zone of inhibition.
Series [6] is classed as physicochemical.
Description: as §1
Purified mutacin was mixed with different 0.1 M buffers in range pH 4-11 (sodium acetate pH 4-6; sodium phosphate pH 7-8; glycine-NaOH pH 8-11). After one or 24 h incubation at room temperature, residual mutacin activity was assayed using the spot test described above. […]
The source holds these as a separate data set.

The subject of another series is Streptococcus sanguis. The experiment in a line: Deferred antagonism assay on trypticase soy-yeast agar plates. Type of series: cell-based. The following applies: zone of inhibition. As to the method:
(§3) Mutacin production was detected by deferred antagonism technique on trypticase soy-yeast agar (TSAY) using S. sobrinus OMZ176, S. mutans 10449, or S. sanguis Ny101 as sensitive indicators (Parrot, et al., 1990). Mutacin present in liquid culture was quantified by spotting […] of 2-fold dilutions of mutacin in phosphate buffered saline (PBS) onto the surface of TSAY overlaid with indicator strain as described. Spots were allowed to dry for 1 h, then the plates were incubated anaerobically for 24 h. The lowest titer yielding a zone of inhibition having clear edges was defined as one bacteriocin unit (BU).
(§4) Biological activity may also be measured by overlaying thin layer chromatography or SDS-PAGE gels with an indicator strain.

Another series relates to Streptococcus mutans WT. Described as above. The following applies: zone of inhibition. It is filed as cell-based. As to the method: as §3, §4
The test system of series [7] is S. sobrinus OMZ176, S. mutans 10449, or S. sanguis Ny101 as sensitive indicators. Put plainly: Mutacin assay: spot test of 2-fold dilutions, bacteriocin units (BU). Type of series: cell-based. Particulars: bacteriocin units per mg total protein, at stages of purification. The source says:
The isolated antimicrobial mutacin polypeptides of the invention are generally characterized as having substantial bacteriocidal activity. As used herein the term “substantial bacteriocidal activity” describes significant mutacin-directed bacterial killing, as measured by any one of a variety of assays. Bacteriocidal activity may be advantageously examined and quantified by the deferred antagonism technique on trypticase soy-yeast agar (TSAY) using S. sobrinus OMZ176 or S. sanguis Ny101 as sensitive indicators (Parrot, et al., 1990). A unit of bacteriocidal activity (BU), present in liquid culture, is described as the lowest titer yielding a clear lytic-like zone of inhibition having clear edges and greater than 10 mm in diameter. Chikindas et al. describes arbitrary units (AU) of activity, which are essentially identical to bacteriocidal activity units. […]
Mutacin production was detected by deferred antagonism technique on trypticase soy-yeast agar (TSAY) using S. sobrinus OMZ176, S. mutans 10449, or S. sanguis Ny101 as sensitive indicators (Parrot, et al., 1990). Mutacin present in liquid culture was quantified by spotting […] of 2-fold dilutions of mutacin in phosphate buffered saline (PBS) onto the surface of TSAY overlaid with indicator strain as described. […]

Read-outs that look alike come from different tables or passages of the source. No end group written: not given here.

On to `C=C1NC(=O)CC[C@@H](C(=O)O)NC(=O)[C@H](NC(=O)[C@H](CCCCN)NC(=O)[C@@H](N)Cc2c[nH]c3ccccc23)CSC[C@@H](C(=O)N[C@@H]2C(=O)N3CCC[C@H]3C(=O)NCC(=O)N[C@H](C(=O)N[C@H](C(=O)N[C@@H]3C(=O)NCC(=O)N[C@@H](C)C(=O)N[C@@H](CC(C)C)C(=O)N[C@@H](CCC(N)=O)C(=O)N/C(=C/C)C(=O)N[C@H](C(=O)N[C@@H](Cc4ccccc4)C(=O)N[C@@H](CC(C)C)C(=O)N[C@@H](CCC(N)=O)C(=O)N[C@@H]4C(=O)N[C@@H](CC(C)C)C(=O)N[C@H]5C(=O)N[C@@H](CSC4C)C(=O)NC(=O)[C@H](CC(N)=O)N[C@H](C(=O)N[C@@H](CCCCN)C(=O)N[C@H](C(=O)NC(=C)C(=O)N[C@@H](CCCCN)C(=O)O)[C@@H](C)CC)CSC5C)CSC3C)C(C)C)CSC2C)N[C@@H](CC(C)C)C(=O)NC1=O` (stereo partly shown) [subtilin], for which, in series [1], the “increase of the biological half-life” value was 57 fold.
Consider “Mutacin: lanthionine-containing polypeptide antibiotic (lantibiotic) purified from Streptococcus mutans T8 or UA96; N-terminus Asn Arg Trp Trp Gln Gly Val Val (NRWWQGVVPTVSYECRMNSWQHVFTCC; cysteine pairing not given here; also: lanthionine-containing lantibiotic, lanthionines not placed; UniProt O54329 27-53, looked up)”, for which the Sensitivity entry in the series on Bacillus subtilis 1687 is “S (S, sensitive (zone radius >2 mm))”; in the series with Streptococcus mutans 159, “S (S, sensitive (zone radius >2 mm))”; in the series on Streptococcus pneumoniae, “SS”; in series [2], “S (S, sensitive (zone radius >2 mm))”; with Streptococcus mutans 130 it was “S (S, sensitive (zone radius >2 mm))”; with Streptococcus salivarius, “S (S, sensitive (zone radius >2 mm))”. The Sensitivity result with Streptococcus lactis is “S (S, sensitive (zone radius >2 mm))”; with Actinomyces viscosus, “S (S, sensitive (zone radius >2 mm))”; in the series with Clostridium sporogenes, “S (S, sensitive (zone radius >2 mm))”; in the series with Streptococcus rattus, “S (S, sensitive (zone radius >2 mm))”; in the series with Streptococcus faecium, “S (S, sensitive (zone radius >2 mm))”; in the series on Mycobacterium phlei, “S (S, sensitive (zone radius >2 mm))”. Moreover, the Sensitivity entry in series [4] is “S (S, sensitive (zone radius >2 mm))”; with Streptococcus mitis it was “S (S, sensitive (zone radius >2 mm))”; in the series on Staphylococcus aureus, “SS”; with Streptococcus pyogenes, “SS”; in the series on Streptococcus sanguis, “S (S, sensitive (zone radius >2 mm))”; with Streptococcus mutans WT it was “S (S, sensitive (zone radius >2 mm))”. Further, the results for the “Temperature (thermostable)” value in series [3] and in series [3] (listed as mutacin) were “thermostable > 100 °C” and “up to 100 °C”, respectively. For the same compound, the “thermostability, residual activity after incubation” value in series [3] is reported as “thermostable”. In the series with trypsin, the “Trypsin (sensitivity)” value is given as “sensitive”. Also, the “residual mutacin activity after incubation with trypsin” value in the series on trypsin (10 min, 4096 BU mutacin, trypsin 2 mg, 50 mM sodium phosphate pH 7.5, room temperature) was “no activity”. Moreover, the “pI (isoelectric point)” value in series [5] is reported as “≧8.4 (based on electrophoretic”. The “pH (stable range)” value in series [6] (listed as mutacin) is given as 4-10. In series [6] (pH 11, 0.1 M glycine-NaOH, one or 24 h at room temperature, spot test), the “residual activity after incubation at pH 11” value is given as “about 50%”.
On to “Water precipitate from 8M urea: final preparation of mutacin, solubilized in 8 M urea and precipitated with water; over 90% pure (NRWWQGVVPTVSYECRMNSWQHVFTCC; cysteine pairing not given here; also: lanthionine-containing lantibiotic, lanthionines not placed; UniProt O54329 27-53, looked up)”, for which, in series [7], the Spec. activity is 150,187 BU/mg.

(Values after patent US6521596B1, “Lanthionine antibiotic compositions and method” (priority 1994, dated 2003).)
